Reference: patent US20250171430A1, “PYRAZOLYL COMPOUNDS AS KV7 CHANNEL ACTIVATORS” (Biohaven Therapeutics Ltd., priority 2022, published 2025)

Target: T1, Kv7.2/7.3 (Homo sapiens, UniProt O43525+O43526)
T1 construct: Kv7.2 tetracycline-induced, Kv7.3 constitutive
Test: Kv7.2/7.3 Activation Assay (Thallium Flux Assay)
Assay type: cell-based
Conditions: hKV7.2/7.3 cell line; test compound at single concentration of 10 μM; fluorescence at 90 sec normalized to positive control (retigabine, 30 μM)
Text: The Thallium Flux Assay is used as a surrogate indicator of potassium channel activity.
The experimental protocol was adapted from the FluxOR™ II Green Potassium Ion Channel Assay User Guide (Pub. No. MAN0016084, Invitrogen). Conditions were optimized for the Kv7.2/7.3 cell line.
Cell Line: The hKV7.2/7.3 cell line was obtained from Chantest (cat. #CT6147).
Cell Culture: Kv7.2/7.3 cells were maintained in a media containing DMEM/F12; 50/50 (Fisher 11-330), 10% Fetal Bovine Serum (FBS) (Fisher 26-140), 100 units/mL Penicillin-Streptomycin (Fisher 15-140), 0.005 mg/ml Blasticidin (InvivoGen ant-bl-1), 0.5 mg/mL Geneticin (InvivoGen ant-gn-5), and 0.1 mg/mL Zeocin (Fisher R25001). One day prior to experimentation, cells were plated in 96 well clear bottom plates (Corning cat. #353219) in a media without Blasticidin, Geneticin, or Zeocin. In this cell line Kv7.3 channel expression is controlled by a constitutive promoter. Kv7.2 channel expression was induced by adding tetracycline (Sigma T7660) at a final concentration of 10 ng/mL overnight in a cell culture incubator at 37° C. and 5% CO2. On the day of assay, the cell culture medium in the 96-well plates was replaced by assay buffer containing the thallium-sensitive fluorescent sensor, FluxOR II Green prepared according to manufacturer's instructions. The 96-well plates were then incubated for 1 h at 37° C. Following the incubation, the FluxOR II Green-containing solution was replaced with extracellular solution.
Test Compound Plates: The test compound is diluted in a mixture of 0.1% DMSO/extracellular solution at a single concentration of 10 μM. Dilutions were made on a Biomek NXP (BECKMAN COULTER). Extracellular solution contained (in mM: 145 NaCl, 4 KCl, 2 CaCl2), 1 MgCl2, 10 HEPES, and 10 Glucose, pH 7.4).
Measurement and data analysis: Thallium-flux-mediated changes in intracellular fluorescence were made using a plate reader (Enspire, Perkin Elmer) set with an excitation wavelength of 475 nm and an emission wavelength of 530 nm. After a 15 sec baseline measurement, the stimulus buffer containing thallium and potassium was added to the 96-well plate containing FluxOR II Green-loaded cells and test compounds. Fluorescence values at 90 sec were normalized to the positive control (retigabine, 30 μM) and test compound activities were assigned categories according to the formula: “No Activity <0.15, “+” Moderate Activity 0.15-0.7, and “++” High Activity >0.7.

| SMILES | Kv7.2/7.3 Activity |
| --- | --- |
| Cn1nc(NC(=O)C[C@@H]2CC(F)(F)C2(F)F)c(C2CCC2)c1Cc1ccc(OC(F)(F)F)cc1 [Compound 63, (R)-N-(4-cyclobutyl-1-methyl-5-(4-(trifluoromethoxy)benzyl)-1H-pyrazol-3-yl)-2-(2,2,3,3-tetrafluorocyclobutyl)acetamide] | ++ (“++” High Activity ≥ 0.7) |
| Cn1nc(NC(=O)CC2CC(F)(F)C2)c(C2CCC2)c1CC1CC1 [Compound 80, N-(4-cyclobutyl-5-(cyclopropylmethyl)-1-methyl-1H-pyrazol-3-yl)-2-(3,3-difluorocyclobutyl)acetamide] | ++ (“++” High Activity ≥ 0.7) |
| Cn1nc(NC(=O)CC(C)(O)c2ccc(F)cc2F)c(C2CCC2)c1-c1ccc(OC(F)(F)F)cc1 (centres unmarked) [Compound 175, N-(4-cyclobutyl-1-methyl-5-(4-(trifluoromethoxy)phenyl)-1H-pyrazol-3-yl)-3-(2,4-difluorophenyl)-3-hydroxybutanamide] | ++ (“++” High Activity ≥ 0.7) |
| Cn1nc(NC(=O)Cc2ccc(F)c(F)c2)c(C2CCC2)c1C1(C(F)(F)F)CCC1 [Compound 90, N-(4-cyclobutyl-1-methyl-5-(1-(trifluoromethyl)cyclobutyl)-1H-pyrazol-3-yl)-2-(3,4-difluorophenyl)acetamide] | + (“+” Moderate Activity 0.15-0.7) |
| Cn1nc(NC(=O)OC2CCC2)c(C2CCC2)c1C1CC(F)(F)C1 [Compound 295, cyclobutyl (4-cyclobutyl-5-(3,3-difluorocyclobutyl)-1-methyl-1H-pyrazol-3-yl)carbamate] | ++ (“++” High Activity ≥ 0.7) |
| Cn1nc(NC(=O)NC2CC(F)(F)C2)c(C2CCC2)c1-c1cc(F)c(F)c(F)c1 [Compound 288, 1-(4-cyclobutyl-1-methyl-5-(3,4,5-trifluorophenyl)-1H-pyrazol-3-yl)-3-(3,3-difluorocyclobutyl)urea] | ++ (“++” High Activity ≥ 0.7) |
| Cn1nc(NC(=O)CC2(O)CCC2)c(C2CCC2)c1-c1ccc(OC(F)(F)F)cc1 [Compound 87, N-(4-cyclobutyl-1-methyl-5-(4-(trifluoromethoxy)phenyl)-1H-pyrazol-3-yl)-2-(1-hydroxycyclobutyl)acetamide] | + (“+” Moderate Activity 0.15-0.7) |
| Cn1nc(NC(=O)[C@@H]2CC2(F)F)c(C2CCC2)c1C1CC(F)(F)C1 [Compound 156, (S)-N-(4-cyclobutyl-5-(3,3-difluorocyclobutyl)-1-methyl-1H-pyrazol-3-yl)-2,2-difluorocyclopropane-1-carboxamide] | ++ (“++” High Activity ≥ 0.7) |
| CCn1nc(NC(=O)CC(C)(C)O)c(C2CC2)c1C [Compound 4, N-(4-cyclopropyl-1-ethyl-5-methyl-1H-pyrazol-3-yl)-3-hydroxy-3-methylbutanamide] | − (“−” No Activity < 0.15) |
| N#CCn1nc(NC(=O)C[C@@H]2CC(F)(F)C2(F)F)c(C2CCC2)c1-c1ccc(F)cc1 [Compound 45, (R)-N-(1-(cyanomethyl)-4-cyclobutyl-5-(4-fluorophenyl)-1H-pyrazol-3-yl)-2-(2,2,3,3-tetrafluorocyclobutyl)acetamide] | ++ (“++” High Activity ≥ 0.7) |
| Cn1nc(NC(=O)C(C)(O)c2ccccc2)c(C2CCC2)c1-c1ccc(OC(F)(F)F)cc1 (centres unmarked) [Compound 182, N-(4-cyclobutyl-1-methyl-5-(4-(trifluoromethoxy)phenyl)-1H-pyrazol-3-yl)-2-hydroxy-2-phenylpropanamide] | ++ (“++” High Activity ≥ 0.7) |
| CC(C)c1c(NC(=O)C[C@H]2CC(F)(F)C2(F)F)nn(C)c1-c1ccc(OC(F)(F)F)cc1 [Compound 25, (S)-N-(4-isopropyl-1-methyl-5-(4-(trifluoromethoxy)phenyl)-1H-pyrazol-3-yl)-2-(2,2,3,3-tetrafluorocyclobutyl)acetamide] | ++ (“++” High Activity ≥ 0.7) |
| COc1ccc(-c2c(C3CCC3)c(NC(=O)C[C@H]3CC(F)(F)C3(F)F)nn2C)cc1 [Compound 57, (S)-N-(4-cyclobutyl-5-(4-methoxyphenyl)-1-methyl-1H-pyrazol-3-yl)-2-(2,2,3,3-tetrafluorocyclobutyl)acetamide] | ++ (“++” High Activity ≥ 0.7) |
| O=C(Nc1nn(CCO)c(-c2ccc(Cl)s2)c1C1CCC1)C1CC(F)(F)C1 [Compound 229, N-(5-(5-chlorothiophen-2-yl)-4-cyclobutyl-1-(2-hydroxyethyl)-1H-pyrazol-3-yl)-3,3-difluorocyclobutane-1-carboxamide] | ++ (“++” High Activity ≥ 0.7) |

Next, values leading:

| Kv7.2/7.3 Activity | SMILES |
| --- | --- |
| ++ (“++” High Activity ≥ 0.7) | Cn1nc(NC(=O)C2CC(F)(F)C2)c(C2CCC2)c1-c1cccc(F)c1 [Compound 193, N-(4-cyclobutyl-5-(3-fluorophenyl)-1-methyl-1H-pyrazol-3-yl)-3,3-difluorocyclobutane-1-carboxamide] |
| ++ (“++” High Activity ≥ 0.7) | Cn1nc(NC(=O)[C@@H]2CCC(F)(F)C2)c(C2CCC2)c1-c1ccc(F)cc1 [Compound 120, (R)-N-(4-cyclobutyl-5-(4-fluorophenyl)-1-methyl-1H-pyrazol-3-yl)-3,3-difluorocyclopentane-1-carboxamide] |
| ++ (“++” High Activity ≥ 0.7) | Cn1nc(NC(=O)[C@H]2C[C@@H](C)C2)c(C2CCC2)c1-c1ccc(F)cc1 [Compound 122, (1S,3S)-N-(4-cyclobutyl-5-(4-fluorophenyl)-1-methyl-1H-pyrazol-3-yl)-3-methylcyclobutane-1-carboxamide] |
| + (“+” Moderate Activity 0.15-0.7) | Cn1nc(NC(=O)[C@H]2C(C)(C)C2(F)F)c(C2CCC2)c1-c1ccc(OC(F)(F)F)cc1 [Compound 52, (R)-N-(4-cyclobutyl-1-methyl-5-(4-(trifluoromethoxy)phenyl)-1H-pyrazol-3-yl)-2,2-difluoro-3,3-dimethylcyclopropane-1-carboxamide] |
| + (“+” Moderate Activity 0.15-0.7) | Cn1nc(NC(=O)C2CC(F)(F)C2)c(C2CCC2)c1-c1ccc(OC(F)(F)F)cc1 [Compound 189, N-(4-cyclobutyl-1-methyl-5-(4-(trifluoromethoxy)phenyl)-1H-pyrazol-3-yl)-3,3-difluorocyclobutane-1-carboxamide] |
| ++ (“++” High Activity ≥ 0.7) | Cn1nc(NC(=O)C2(C(F)(F)F)CC2)c(C2CCC2)c1-c1ccc(F)cc1 [Compound 126, N-(4-cyclobutyl-5-(4-fluorophenyl)-1-methyl-1H-pyrazol-3-yl)-1-(trifluoromethyl)cyclopropane-1-carboxamide] |
| ++ (“++” High Activity ≥ 0.7) | Cn1nc(NC(=O)C2CSC2)c(C2CCC2)c1-c1ccc(F)cc1 [Compound 205, N-(4-cyclobutyl-5-(4-fluorophenyl)-1-methyl-1H-pyrazol-3-yl)thietane-3-carboxamide] |
| ++ (“++” High Activity ≥ 0.7) | C[C@H](C(=O)Nc1nn(C)c(-c2ccc(F)cc2)c1C1CCC1)C(C)(C)C [Compound 113, (S)-N-(4-cyclobutyl-5-(4-fluorophenyl)-1-methyl-1H-pyrazol-3-yl)-2,3,3-trimethylbutanamide] |
| + (“+” Moderate Activity 0.15-0.7) | Cn1nc(NC(=O)C2(C)CC2)c(C2CCC2)c1-c1ccc(F)cc1 [Compound 146, N-(4-cyclobutyl-5-(4-fluorophenyl)-1-methyl-1H-pyrazol-3-yl)-1-methylcyclopropane-1-carboxamide] |
| + (“+” Moderate Activity 0.15-0.7) | Cn1nc(NC(=O)[C@H]2C[C@H]2F)c(C2CCC2)c1-c1ccc(F)cc1 [Compound 206, (1R,2R)-N-(4-cyclobutyl-5-(4-fluorophenyl)-1-methyl-1H-pyrazol-3-yl)-2-fluorocyclopropane-1-carboxamide] |
| ++ (“++” High Activity ≥ 0.7) | Cn1nc(NC(=O)CC2(O)CCCC2)c(C2CCC2)c1-c1ccc(F)cc1 [Compound 73, N-(4-cyclobutyl-5-(4-fluorophenyl)-1-methyl-1H-pyrazol-3-yl)-2-(1-hydroxycyclopentyl)acetamide] |
| ++ (“++” High Activity ≥ 0.7) | Cn1nc(NC(=O)[C@H]2C[C@H](C)C2)c(C2CCC2)c1-c1ccc(OC(F)(F)F)cc1 [Compound 184, (1r,3r)-N-(4-cyclobutyl-1-methyl-5-(4-(trifluoromethoxy)phenyl)-1H-pyrazol-3-yl)-3-methylcyclobutane-1-carboxamide] |
